Key:
[1] = tested on: C8161 aggressive melanoma cells; test: VM network formation in three-dimensional MATRIGEL, C8161 cells; type: cell-based, human; conditions: 24 h treatment
Method: (§1) Aggressive human melanoma (C8161 or SK-MEL28; 1×10^5) cells were seeded into a three-dimensional polymerized MATRIGEL™ (75 μl) for VM network analysis. C8161 or SK-MEL28 cells were treated for 24 h with 0.5, 1, 5, 10, 25 or 50 or 100 nM of TRX-818 at 5 or 24 h after cell attachment. Another set of melanoma cells were seeded onto a plastic dish and treated for the same amount of time before the cell viability of C8161 or SK-MEL28 cells was determined using the Guava Nexin Assay (Millipore, USA).
(§2) The VM network image was taken using a confocal laser scanning microscope equipped with an environmental, chamber to track the response of cancer cells to the test compound. The images were then digitized and subsequently analyzed using the Angiosys software. Four images per sample were analyzed to quantify the number of junctions and total tubule length of VM formation. Changes were presented in percentage relative to the vehicle control. Sterile deionized water (tissue-culture grade) was used as the vehicle control.
Aggressive human melanoma (C8161, 7.5×10^4) cells were seeded as disclosed in Example 1. C8161 cells were treated tor 4 h or 24 h with 0.3, 1 or 5 nM of TRX-818M1. Another set of melanoma cells were seeded onto a plastic dish and treated for the same amount of time before the cell viability of C8161 cells was determined.

SK-MEL28 cancer cells = test: VM network formation in three-dimensional MATRIGEL, SK-MEL28 cells; type: cell-based, human; conditions: 24 h treatment
Method: as §1, §2

[2] = tested on: Aggressive human melanoma (C8161 or SK-MEL28) cells; test: Quantification of number of junctions and total tubule length of VM formation (Angiosys); type: cell-based
Method: as §1, §2

[3] = tested on: Notch4 intracellular domain (Notch 4 ICD); test: qRT-PCR mRNA level of Notch4 ICD in C8161 cells; type: cell-based, human; conditions: 10 nM
Method: (§3) To determine whether TRX-818 reduced the VM network formation by altering the levels of the essential proteins for VM, its effect on Nodal, Notch4, VE-cadherin (CDHE5) or ephrin receptor A2 (Eph A2) expression was determined using qRT-PCR. 2×10^6 of aggressive human melanoma (C8161) cells were treated with 10 nM TRX-818 for 8, 24, 48, or 72 h. Sterile deionized water (tissue-culture grade) was used as vehicle.

Nodal = test: qRT-PCR mRNA level of Nodal in C8161 cells; type: cell-based, human; conditions: 10 nM
Method: as §3

VE-cadherin (CDH5) = test: qRT-PCR mRNA level of CDH5 in C8161 cells; type: cell-based, human; conditions: 10 nM
Method: as §3

Pro-Nodal = test: Immunoblotting of Pro-Nodal protein in C8161 cells; type: cell-based, human; conditions: 10 nM
Method: (§4) To further understand how TRX-818 alters the signaling pathways required for VM network formation, the protein levels of Pro-Nodal, Smad2, and phosphorylated Smad2 (P-Smad2) were determined using immunoblotting analysis. On the day of study, TRX-818 was prepared as described in Example 1, C8161 cells were untreated (control) or treated with 10 nM TRX-818 for 1, 4, 8, and 24 h. Protein expression of Nodal and total Smad2, and P-Smad2 was analyzed by immunoblotting analysis, 5×10^6 aggressive human melanoma (C8161) cells were seeded onto a plastic dish in the presence of 10 nM TRX-818, and total proteins were collected for analysis. To quantify the protein levels of Nodal and P-Smad2, 40 μg and 25 μg of total proteins were used for SDS-PAGE and immunoblotting, respectively. The protein level of β-actin was used for normalization to assure equal protein loading.

[4] = tested on: phosphorylated Smad2 (P-Smad2); test: Immunoblotting of phosphorylated Smad2 in C8161 cells; type: cell-based, human; conditions: 10 nM
Method: as §4

Smad2 = test: Immunoblotting of total Smad2 in C8161 cells; type: cell-based, human; conditions: 10 nM
Method: as §4

[5] = tested on: HCT-116 orthotopic human colon cancer xenograft; test: HCT-116 orthotopic human colon cancer xenograft model; type: in vivo, mice; conditions: for animals found dead prior to study termination: ten mice/group
Method: The inhibitory effect of TRX-818 on tumor growth and VM formation of HCT-116, a highly metastatic colon tumor, was examined in a HCT-116 orthotopic xenograft model. The effect of TRX-818 was evaluated on the formation of the vascular or vascular-like (vasculogenic mimicry, VM) network by immunohistochemistry staining (IHC) in orthotopic xenograft human colon cancer model inoculated with HCT116 colon cancer cell lines
Six groups were set in this study (ten mice/group). There were: Group 1, TRX-818 at 20 mg/kg given as oral administration; Group 2, TRX-818 at 50 mg/kg given as oral administration; Group 3, TRX-818 at 100 mg/kg given as oral administration; Group 4, TRX-818 at 20 mg/kg given as intravenous injection; Group 5, Irinotecan at 50 mg/kg given as intraperitoneal injection; Group 6, vehicle group. Dose schedule for G1, G2, G3 and G6 was QD×28 and for G4 was QOD×7. Body weights were monitored for safety evaluation. Tumor size and tumor weight were measured at the end of in-life study. The percentage of tumor growth inhibition (TGI %) was calculated at the termination of the study for anti-tumor effect evaluation. The average body weight of study mice on Day 1 was ˜20 gram and decreased to ˜17-19 gram at the end of study (Day 42)
At the end of 28-day dosing, CO2 anesthesia (1 min) followed by cervical dislocation was used for mice euthanasia in the study prior to tumors and lungs excision. First, a ventral midline incision was made and colon with primary tumor was excised and collected. The tumor collection was completed in 3 minutes after euthanasia. The tissues were rinsed with PBS to remove the blood before fixation.
The number of channels with CD31^+/red blood cell (RBC)^+ or CD31^−/RBC^+ were counted on the whole section of each sample in each group, and the number of vessels with CD31 positive or negative staining were counted based on 5 light fields (200×) under microscope. The vascular network represented by the CD31^+/RBC^+ staining whereas the VM network represented by CD31^−/RBC^+ staining, because the VM formation is independent of vascular endothelial cells. The scoring was conducted by blinded, objective observer.

COc1ccc2[nH]c(-c3cccc(F)c3)cc(=O)c2c1OP(=O)(O)O [TRX-818, 2-(3-fluorophenyl)-6-methoxy-4-oxo-1,4-dihydroquinolin-5-yl phosphate]
concentration at which VM network formation was inhibited [1]: 5 to 10 nM
concentration at which VM network formation was inhibited (SK-MEL28 cancer cells): 5 to 10 nM
No. of junctions, relative to vehicle control ([2]; 1 nM): −16.5%
Total tubule length, relative to vehicle control ([2]; 1 nM): −15.1%
No. of junctions, relative to vehicle control ([2]; 5 nM): −43.1%
Total tubule length, relative to vehicle control ([2]; 5 nM): −23.3%
maximal reduction of cell junctions ([2]; 5 nM): 43%
No. of junctions, relative to vehicle control ([2]; 10 nM): −35.9%
Total tubule length, relative to vehicle control ([2]; 10 nM): −26.0%
No. of junctions, relative to vehicle control ([2]; 50 nM): −42.9%
Total tubule length, relative to vehicle control ([2]; 50 nM): −47.5%
maximal reduction of total tubule length ([2]; 50 nM): 48%
decrease of Notch4 ICD mRNA level compared to control ([3]; 8 hours): 75%
mrna remaining at 0.01 µM ([3]; Homo sapiens, 72 h, read-out: Notch4 ICD mRNA level remaining, % of control cells): 50%
decrease of Nodal mRNA level compared to control (Nodal; 8 hours): 80%
mrna remaining at 0.01 µM (Nodal; Homo sapiens, 72 h, read-out: Nodal mRNA level remaining, % of control cells): 70%
decrease of CDH5 mRNA level compared to control (VE-cadherin (CDH5); 8 hours): 70%
mrna remaining at 0.01 µM (VE-cadherin (CDH5); Homo sapiens, 72 hours, read-out: CDH5 mRNA level remaining, % of control cells): 50%
decrease in Pro-Nodal protein level vs control cells (Pro-Nodal; 24 h): 63%
decrease in Pro-Nodal protein level vs control cells (Pro-Nodal; four to eight hours): 28%
decrease in Nodal protein expression (detected as Pro-Nodal) vs control cells (Pro-Nodal; one hour): 4%
P-Smad2/Smad2 post-treatment protein level (relative to untreated control cells) ([4]; 1 hour): −33%
P-Smad2 post-treatment protein level (relative to untreated control cells) ([4]; 1 hour): −4%
P-Smad2/Smad2 post-treatment protein level (relative to untreated control cells) ([4]; 4 hours): −60%
P-Smad2 post-treatment protein level (relative to untreated control cells) ([4]; 4 hours): −57%
P-Smad2/Smad2 post-treatment protein level (relative to untreated control cells) ([4]; 8 hours): −40%
P-Smad2 post-treatment protein level (relative to untreated control cells) ([4]; 8 hours): −39%
P-Smad2/Smad2 post-treatment protein level (relative to untreated control cells) ([4]; 24 hours): −76%
P-Smad2 post-treatment protein level (relative to untreated control cells) ([4]; 24 hours): −73%
Smad2 post-treatment protein level (relative to untreated control cells) (Smad2; 1 hour): +43%
Smad2 post-treatment protein level (relative to untreated control cells) (Smad2; 4 hours): +9%
Smad2 post-treatment protein level (relative to untreated control cells) (Smad2; 8 hours): +3%
Smad2 post-treatment protein level (relative to untreated control cells) (Smad2; 24 hours): +13%
animals found dead prior to study termination ([5]; 20 mg/kg QOD group (intravenous)): two
animals found dead prior to study termination ([5]; 50 mg/kg QD group): one
reduction of tumor volume compared to the vehicle group ([5]; 50 mg/kg oral QD×28, Day 43 post tumor inoculation): 49%
Average number of channels (CD31−/RBC+, VM) in the whole tumor section per group, Mean ± SEM ([5]; 100 mg/kg QD×28, p.o.): 0.8 ± 0.3
MED (Minimum Effective Dose) ([5]; orally administered): 50 mg/kg

Source: patent US9717721B2, “Use of aryl-quinolin derivatives as inhibitors of vasculogenic mimicry” (TaiRx Inc., priority 2015, dated 2017)
